Data on one molecule can be found in US20250185948A1, “WEARABLE APTAMER MICRONEEDLE PATCH FOR CONTINUOUS MINIMALLY-INVASIVE BIOMONITORING” (THE REGENTS OF THE UNIVERSITY OF CALIFORNIA, priority 2022, published 2025).

SMILES strings stand for the structures.

The conditions of series [1]: tobramycin treatments; cited from earlier work.
Series [2] in a line: AMPatch in-vivo tobramycin PK monitoring in a rat model (ISF sensor readout and blood LC-MS/MS). The following applies: intravenous tobramycin 20 mg/kg, different animals. Also noted: species or system Sprague-Dawley rats. An excerpt:
More particularly, the developed AMPatch was applied to monitor the PK profile of tobramycin in dermal ISF using a rat model and investigate the drug's ISF-blood correlation. Accordingly, used were three healthy adult Sprague-Dawley rats and the animals were anesthetized during the test (FIG. 4A). An AMPatch was placed at the back of the animal to render continuous ISF monitoring upon intravenous tobramycin injection. […] To investigate the drug's ISF-blood correlation, blood samples were simultaneously collected before and at intermittent time points after drug injection, followed by standard lab analysis (liquid chromatography with tandem mass spectrometry, LC-MS/MS). The acquired PK readouts were interpreted using a two compartment-based pharmacokinetic model, which captures the drug's distribution (e.g., from blood to ISF) and elimination processes (FIG. 4B). The blood-ISF correlation was evaluated by comparing the drug's circulating AUC (AUC_blood) versus the AUC and the maximum concentrations of ISF drug, where the ISF concentrations can be equivalently presented by the measured sensor response (denoting AUC_ISF and R_max, respectively).
An AMPatch according to embodiments was first deployed in a manner to assess its capability of tracking the ISF PK profile in-vivo. […]

In the case of `NC[C@H]1O[C@H](O[C@H]2[C@H](O)[C@@H](O[C@H]3O[C@H](CO)[C@@H](O)[C@H](N)[C@H]3O)[C@H](N)C[C@@H]2N)[C@H](N)C[C@@H]1O` [tobramycin], in series [1], the “rate of nephrotoxicity incidence” value is 12%. Also, the AUC in series [2] (Sprague-Dawley, blood LC-MS/MS, read-out: AUC_blood) is 176 µM·h. Besides, the AUC_ISF in series [2] (dermal ISF, AMPatch sensor response) was determined as 7.7±5.2 %·h.
